In patent US7192941B2, “Estradiol metabolites for the treatment of pulmonary hypertension” (priority 2003, dated 2007):

Experiments:
Type in all cases: in vivo, male Sprague Dawley rats
[1] = tested on: small size pulmonary arteries; test: Vascular remodeling: wall/media thickness of small size pulmonary arteries (smooth muscle alpha-actin staining) in monocrotaline-treated rats; details: vs MCT group (wall thickness increased by 87% vs control); 10 μg/kg/hour, 21 days; p<0.001; FIG. 9
Procedure: (§1) A total of twenty-seven, male Sprague Dawley rats (Charles River, Wilmington, Mass.) (378 +/−12 grams) were utilized in this experiment. Animals were housed in the University of Pittsburgh Medical Center animal care facility (temperature 22° C., light cycle 12 hours, relative humidity 55%). Animals were fed Pro Lab RHM 3000 rodent diet (PMI Nutrition, Inc, St Louis, Mo.) and were given water ad libitum. Institutional guidelines for animal welfare were followed, and the Animal Care and Use Committee approved experimental protocols.
Animals were randomly assigned to receive subcutaneously saline (1 ml/kg, n=6) or monocrotaline (Sigma, St Louis, Mo.) (MCT, 60 mg/kg subcutaneously) (n=21). Monocrotaline is an agent known to induce pulmonary hypertension. […]
For assessment of vascular remodeling, vascular smooth muscle cells in pulmonary arteries were stained with smooth muscle alpha-actin Ab-1 mouse monoclonal antibody ( 1/100 dilution, Lab Vision, Fremont, Calif.). The wall and media thickness were measured in small size pulmonary arteries (50–200 microns) using commercial imaging software. Only vessels with an approximately circular profile were analyzed. […]

[2] = tested on: monocrotaline-induced pulmonary hypertension; test: Monocrotaline-induced pulmonary hypertension in rats: organ weights and hemodynamics (central venous pressure); details: MCT 60 mg/kg s.c., 10 μg/kg/hour by osmotic minipump, 21 days; for adverse consequences associated with monocrotaline treatment (pulmonary hypertension, increased lung weight, cardiac hypertrophy, right ventricular hypertrophy): FIGS. 1-4
Procedure: as §1
(§2) Animals were randomly assigned to receive subcutaneously saline (1 ml/kg, n=6) or monocrotaline (Sigma, St Louis, Mo.) (MCT, 60 mg/kg subcutaneously) (n=21). Monocrotaline is an agent known to induce pulmonary hypertension. Six hours after the initial injection, control animals were implanted with osmotic minipumps (model 2ML4, Alza, Palo Alto, Calif.) containing vehicle (polyethylene glycol 400, 2.5 μl/hour) (Sigma, St Louis, Mo.), whereas MCT treated animals were implanted with osmotic minipumps containing either vehicle (MCT group; n=7), 2-hydroxyestradiol (Steraloids, Newport, R.I.) (10 μg/kg/hour, MCT+2HE group, n=7) or 2-methoxyestradiol (Steraloids, Newport, R.I.) (10 μg/kg/hour, MCT+2ME group, n=7). Assignment to the MCT, MCT+2HE, and MCT+2ME groups was conducted randomly.
After 21 days animals were weighed, anesthetized with pentobarbital (Sigma, St Louis, Mo.) (50 mg/kg) intraperitoneally, and instrumented for measurements of blood pressure, heart rate and central venous pressure. A PE-50 catheter was inserted into the right jugular vein and advanced approximately one inch and connected to a low-pressure analyzer (LPA, Micro-Med., Inc., Louisville Ky.) for continuous measurements of central venous pressure. […]
Animals were killed by an overdose of anesthetic, and the heart and lungs were removed and weighed. […] Both ventricles were weighed and the right ventricle to left ventricle plus septum ratio was calculated. […]

[3] = tested on: proliferating cell nuclear antigen (PCNA); test: Cell proliferation (PCNA immunostaining) in lungs, right ventricle and main pulmonary artery of monocrotaline-treated rats; details: vs MCT group, 10 μg/kg/hour, 21 days, p<0.001; for inhibition of proliferative response (PCNA staining) in the lungs: FIG. 6A; for inhibition of proliferative response (PCNA staining) in the right ventricle: FIG. 6B; for inhibition of proliferative response (PCNA staining) in the main pulmonary artery: FIG. 6C
Procedure: as §1, §2
The fixed specimens were embedded in paraffin and cut into 4-micron-thick sections for subsequent light microscopy and immunohistochemical analysis.
For the assessment of proliferation, the proliferating cell nuclear antigen (PCNA) was labeled using the primary monoclonal mouse antibody ( 1/200 dilution; Dako, Carpenteria, Calif.) and VEGF expression was measured using a rabbit polyclonal antibody ( 1/50 dilution, Lab Vision, Fremont, Calif.). A polyclonal ED1 antibody (Serotec, Raleigh, N.C.) specific for the monocyte/macrophage cytoplasmatic antigen was used to label vascular (main pulmonary artery) and pulmonary macrophages. For measurement of nonspecific staining, the primary antibody was replaced with phosphate buffered saline (PBS). Sections were washed and further developed according to the directions of the manufacturer (Dako Corporation, Carpinteria, Calif.) using the LSAB2 kit that contained a second antibody linked to […]. Immunochemical staining for PCNA and VEGF were assessed quantitatively with a SAMBA 4000 image analyzer (Image Products International, Chantilly, Va.) using specialized computer software designed for immunostaining analysis (Immuno-Analysis, version 4.1, Microsoft, Richmond, Wash.). The software set density threshold values by averaging several fields on the negative control tissues in which the primary antibody was replaced with PBS. Background subtraction was then performed on every tissue. Ten high power fields (×400) were assessed for staining density, wall thickness or positively marked cells for ED-1. The results for PCNA and VEGF are reported as the labeling index, which represents the percentage of the total examined area that stained positively. Staining intensity of positive areas was also assessed (mean optical density), and a mean quick score was then calculated (mean optical density×labeling index). The inflammatory response data are expressed as the total number of ED1+ cells per ten high power fields
Statistical analyses were performed using the Number Cruncher Statistical software program (Kaysville, Utah). Group comparisons were performed by a one-factor analysis of variance (1-F ANOVA), followed by post-hoc comparison using the Fisher's LSD test. All data are presented as mean ±S.E.M.

[4] = tested on: vascular endothelial growth factor (VEGF) expression; test: VEGF expression (immunohistochemistry) in lungs of monocrotaline-treated rats; details: MCT rats, 10 μg/kg/hour, 21 days, mean ±S.E.M., Control 34.2±2.2, MCT 42.8±2.6, p=0.482
Procedure: as §1
Animals were randomly assigned to receive subcutaneously saline (1 ml/kg, n=6) or monocrotaline (Sigma, St Louis, Mo.) (MCT, 60 mg/kg subcutaneously) (n=21). […]
For the assessment of proliferation, the proliferating cell nuclear antigen (PCNA) was labeled using the primary monoclonal mouse antibody ( 1/200 dilution; Dako, Carpenteria, Calif.) and VEGF expression was measured using a rabbit polyclonal antibody ( 1/50 dilution, Lab Vision, Fremont, Calif.). […] Immunochemical staining for PCNA and VEGF were assessed quantitatively with a SAMBA 4000 image analyzer (Image Products International, Chantilly, Va.) using specialized computer software designed for immunostaining analysis (Immuno-Analysis, version 4.1, Microsoft, Richmond, Wash.). […] Ten high power fields (×400) were assessed for staining density, wall thickness or positively marked cells for ED-1. […]

Row | Compound | attenuation of MCT-induced hypertrophy of the media (wall thickness, small size pulmonary arteries) [1] [%] | adverse consequences associated with monocrotaline treatment (pulmonary hypertension, increased lung weight, cardiac hypertrophy, right ventricular hypertrophy) [2] | inhibition of proliferative response (PCNA staining) in the lungs [3] [%] | inhibition of proliferative response (PCNA staining) in the right ventricle [3] [%] | inhibition of proliferative response (PCNA staining) in the main pulmonary artery [3] [%] | VEGF labeling index (percent of the lung tissue stained positive for VEGF) [4] [%] | central venous pressure ([2]; FIG. 5)
1 | C[C@]12CC[C@@H]3c4cc(O)c(O)cc4CC[C@H]3[C@@H]1CC[C@@H]2O [2HE, estra-1,3,5 (10)-triene-2,3,17-triol (17β)] | −50 | did not demonstrate the same level of adverse consequences | −60 | −81 | −83 | 37.6±3.3 | 
2 | COc1cc2c(cc1O)CC[C@@H]1[C@@H]2CC[C@]2(C)[C@@H](O)CC[C@@H]12 [2ME, estra-1,3,5 (10)-triene-2-methoxy-3, 17-diol (17β)] | −40 | did not demonstrate the same level of adverse consequences | −70 | −77 | −94 | 37.6±3.9 | especially effective at reducing central venous pressure
